According to patent publication US9173935B2, “Phospholipid drug analogs” (Telormedix SA, priority 2010, dated 2015):
Read-outs that look alike come from different tables or passages of the source.

How the values were obtained:
[1] = Storage stability by HPLC (solid or chloroform solution; temperature, light); assay type: physicochemical
Experimental: At this point, a stability study was conducted on batch CH730/16/8g.
The samples were analyzed at t=0 and after 20 days.

[2] = system: Raw264.7 mouse macrophage cell line; assay: IL-6 and TNF-alpha secretion in Raw264.7 cells (ELISA); assay type: cell-based; details: 24 hours treatment, 7 doses
Experimental: EC50 values were determined for control and each drug candidate for IL-6 and TNF-alpha secretion. […] The cells were plated in 96 well plates and treated with TLR7 agonists for 24 hours in 7 doses. The conditioned media was removed after 24 hours for ELISA analyses. The cells were subsequently assayed for viability using the XTT assay according to the guidelines from the supplier. […] The experiment was performed in quadruplicate wells for each testing series, and the supernatant pooled and measured by ELISA in triplicates. Concentrations of IL-6 and TNF-alpha were determined by ELISA from R&D Systems using the Microsoft Excel Software. The results were analyzed in Graph Pad Prism in order to prepare dose-response curves, and for determination of EC50 values.

[3] = system: HLA-DR+/CD11c-/CD123+ pDCs; assay: FACS analysis of plasmacytoid DC activation in whole blood; assay type: cell-based, human; details: 24 hours, 0.1 and 0.5 uM, three donors
Experimental: A flow cytometric analysis was performed on whole blood from three donors after treatment with two compound concentrations for 24 h. The FACS analysis for donor 1 and donor 2 was made on another day than donor 3. The compound concentrations were as follows:
The FACS analysis was used to identify whether the test compounds could induce activation of B cells, and two different subsets of dendritic cells, namely the myeloid CD11c+/CD123− DCs and the plasmacytoid CD11c−/CD123+ DCs. The following markers were studied to identify the activation status of the different subsets:
The FACS staining was performed according to the manufacturer's instructions. Lysis of red blood cells was performed before FACS staining in order to minimize auto-florescence. To include as many B cells and DCs in the study as possible the FACS analyses were performed on 500,000 cells in total for each staining. A P1 gate was set only to include relevant cells on FSC vs. SSC (see FIGS. 12-15). The results of the individual analysis were present as Mean Fluorescence Intensity
The analysis of pDCs was based on HLA-DR+/CD11c−/CD123+ cells, thus all analyzed cells were included in the HLA-DR+ (P3) gate and CD11c−/CD123+(Q1) gate. (FIGS. 13-15).

[4] = system: Salmonella typhimurium TA1535, TA1537, TA98, TA100; assay: Bacterial mutation assay, Salmonella typhimurium; details: absence or presence of S9 metabolism
Experimental: (§1) The five tester strains TA1535, TA1537, TA98, TA100 and WP2 uvrA were used. Experiments were performed both in the absence and presence of metabolic activation, using liver S9 fraction from rats pre-treated with phenobarbitone and betanaphthoflavone. SC12 was used as a solution in dimethylsulfoxide (DMSO).

RAW.264 cells = assay: Intracellular uptake in RAW.264 cells (LC-MS); assay type: cell-based; details: 10 microM
Experimental: 5×10^6 RAW.264 cells were adhered overnight in 10 cm tissue culture dishes. […] […] Supernatant (2 ml) and cells (pellets) were collected by trypsinization and frozen at […] for subsequent analysis by LC-MS.

CYP2C9 = CYP2C9 (Homo sapiens (Human), UniProt P11712); assay: Fluorescent High Throughput P450 assay, CYP2C9; assay type: biochemical; details: substrate MFC; read-out: CYP2C9 IC50 (Mean ± S.D.)
Experimental: (§2) Inhibition of the P450 isoforms was measured in specific assays using specific substrates that become fluorescent upon CYP metabolism. Compounds, dissolved in ACN (acetonitrile) (CYP2E1, CYP2C8, CYP2B6, CYP3A5) or DMSO (all remaining isoforms), were tested in duplicate (n=2) in concentration-response curves (eight concentrations) in a 96-well plate containing incubation/NADPH regenerating buffer. Specific isoenzymes and substrates were added and incubated at 37° C. Reactions were terminated at different times, depending on the assays, and plates read on a Fluoroskan Ascent at the appropriate emission/excitation wavelengths. Concentration-response curves performed in duplicate for known inhibitors for each isoenzyme were tested in every assay as positive control.

[5] = Intravenous pharmacokinetics in the mouse; details: for Plasma concentration Mean ± S.D.: 1 mg/kg IV
Experimental: An IV bolus was administered into the caudal vein at a dose of 1 mg/kg in […]. The compound weight was 2.08/10.04 ml. 24 mice were studied. […] […] Animals were sacrificed using ethyl ether at the conclusion of the experiment.
Sample preparation: In a Sirocco filter plate, 100 microliters of plasma were added to 300 microliters of ACN/MeOH spiked with 5 microliters of IS (IV298 10 micrograms per ml) plus 10 microliters of 5% H3PO4. The plate was shaken for 10 minutes at 80 rpm and then filtered under vacuum for 5 minutes.
Analytical method: LC/MS/MS: Premiere XE, Eluent: water (A) MeOH(B) plus 0.1% HCOOH gradient. 15% B to 100% B from 0.1 to 0.5, then isocratic 100% B up to 1.5 minutes, flow 0.8 ml/min; Column Acquity UPLC BEH C18 1.7 microm 2.1×50 mm, injection volume of 5 microliters in a T column at 50° C. ESI positive, MRM, Extractor 5V; Capillary 3.5 kV; T source 115° C.; T desolv. 450° C.
Data analysis: Non-compartmental analysis WinNonlin 5.1; linear trapezoidal, uniform weight.

CYP3A4 = CYP3A4 (Homo sapiens (Human), UniProt P08684); assay: Fluorescent High Throughput P450 assay, CYP3A4; assay type: biochemical; details: substrate BFC; read-out: CYP3A4 IC50 (Mean ± S.D.)
Experimental: as §2

[6] = system: Escherichia coli WP2 uvrA; assay: Bacterial mutation assay, Escherichia coli; details: absence or presence of S9 metabolism
Experimental: as §1

Sequence of CYP2C9 (P11712 whole entry, looked up): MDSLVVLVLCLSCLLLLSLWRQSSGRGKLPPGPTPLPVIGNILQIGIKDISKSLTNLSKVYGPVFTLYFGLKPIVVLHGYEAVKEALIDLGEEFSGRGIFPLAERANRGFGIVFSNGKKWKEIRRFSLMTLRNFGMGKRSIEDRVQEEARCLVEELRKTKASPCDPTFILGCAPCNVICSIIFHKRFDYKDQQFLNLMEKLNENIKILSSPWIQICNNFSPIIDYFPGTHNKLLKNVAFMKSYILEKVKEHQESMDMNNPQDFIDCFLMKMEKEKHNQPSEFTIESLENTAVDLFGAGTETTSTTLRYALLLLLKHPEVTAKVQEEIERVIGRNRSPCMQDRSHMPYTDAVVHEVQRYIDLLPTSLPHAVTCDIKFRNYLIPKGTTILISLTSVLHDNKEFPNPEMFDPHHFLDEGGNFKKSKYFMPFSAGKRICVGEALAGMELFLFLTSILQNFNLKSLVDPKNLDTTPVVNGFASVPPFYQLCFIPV
Sequence of CYP3A4 (P08684 whole entry, looked up): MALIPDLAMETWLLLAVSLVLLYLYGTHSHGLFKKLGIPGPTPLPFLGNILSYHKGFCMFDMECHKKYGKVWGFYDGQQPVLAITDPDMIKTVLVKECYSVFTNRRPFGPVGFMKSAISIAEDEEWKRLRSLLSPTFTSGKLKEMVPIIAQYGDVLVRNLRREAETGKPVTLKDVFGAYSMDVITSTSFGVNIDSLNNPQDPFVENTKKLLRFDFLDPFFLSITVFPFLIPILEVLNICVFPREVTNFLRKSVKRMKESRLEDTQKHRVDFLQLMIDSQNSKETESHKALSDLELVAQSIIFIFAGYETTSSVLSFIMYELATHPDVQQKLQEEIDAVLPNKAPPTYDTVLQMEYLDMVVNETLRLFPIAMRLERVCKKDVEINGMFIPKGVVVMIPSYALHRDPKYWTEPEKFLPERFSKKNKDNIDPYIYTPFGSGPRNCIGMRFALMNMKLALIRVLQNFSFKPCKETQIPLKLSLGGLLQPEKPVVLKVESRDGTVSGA

CCCCCCCCCCCC(=O)OCC(COP(=O)(O)OCCNC(=O)c1ccc(Cn2c(=O)[nH]c3c(N)nc(OCCOC)nc32)cc1)OC(=O)CCCCCCCCCCC (stereo not drawn) [SC12]
HPLC RRT = 1 ([1]; Solid, RT and light, t = 20 days): RRT = 1: 87.8%
HPLC RRT = 1 ([1]; Solid, external T and light, t = 20 days): RRT = 1: 84.0%
HPLC RRT = 1 ([1]; Solution in CHCl3, RT and light, t = 20 days): RRT = 1: 88.0%
HPLC RRT = 1 ([1]; t = 0): RRT = 1: 90.3%
EC50 ([2]; read-out: EC 50 IL 6): 0.042 µM
EC50 ([2]; read-out: EC 50 TNF-alpha): 0.041 µM
CD80 expression on pDCs [3]: induces a slightly higher CD80 expression than compound A
CD86 expression on pDCs [3]: tendency to induce higher CD86 expression than compound A
Toxicity to tester strains ([4]; 50.0-5000 micrograms/plate): No toxicity was observed
Reverse mutation ([4]; up to 5000 micrograms/plate): does not induce reverse mutation
Intracellular Concentration (RAW.264 cells; incubation 1 hours): 18.5 % of total
Intracellular Concentration (RAW.264 cells; incubation 6 hours): 20.6 % of total
Intracellular Concentration (RAW.264 cells; incubation 18 hours): 21.4 % of total
IC50 (CYP2C9): 33.4 ± 0.3 µM
AUC INF obs ([5]; 1 mg/kg IV bolus, plasma): 12878 ng·min/mL
AUClast ([5]; 1 mg/kg IV bolus, plasma): 11744 ng·min/mL
C0 ([5]; 1 mg/kg IV bolus, plasma): 2664 ng/mL
CI ([5]; 1 mg/kg IV bolus, plasma): 77.7 mL/min/kg
Clast ([5]; 1 mg/kg IV bolus, plasma): 6 ng/mL
Cmax ([5]; 1 mg/kg IV bolus, plasma): 541 ng/mL
MRT ([5]; 1 mg/kg IV bolus, plasma): 32 min
T ½ ([5]; 1 mg/kg IV bolus, plasma): 130 min
Tlast ([5]; 1 mg/kg IV bolus, plasma): 120 min
Tmax ([5]; 1 mg/kg IV bolus, plasma): 5 min
Vss ([5]; 1 mg/kg IV bolus, plasma): 2.5 L/kg
Plasma concentration Mean ± S.D. ([5]; 5 min): 540.70 ± 179.99 ng/mL
Plasma concentration Mean ± S.D. ([5]; 15 min): 22.27 ± 3.16 ng/mL
Plasma concentration Mean ± S.D. ([5]; 30 min): 10.00 ± 1.68 ng/mL
Plasma concentration Mean ± S.D. ([5]; 60 min): 7.62 ± 0.72 ng/mL
Plasma concentration Mean ± S.D. ([5]; 120 min): 6.05 ± 0.78 ng/mL
Plasma concentration Mean ± S.D. ([5]; 240 min, LLOQ 5 ng/ml): <LLOQ
Plasma concentration Mean ± S.D. ([5]; 480 min, LLOQ 5 ng/ml): <LLOQ
Plasma concentration Mean ± S.D. ([5]; 1440 min, LLOQ 5 ng/ml): <LLOQ
IC50 (CYP3A4): 13.6 ± 0.7 µM
Toxicity to tester strains ([6]; 50.0-5000 micrograms/plate): No toxicity was observed
Reverse mutation ([6]; up to 5000 micrograms/plate): does not induce reverse mutation
